In patent US20250188069A1, “COMPOUNDS AND METHODS FOR DEGRADING CASEIN KINASE 1 ALPHA” (PIN THERAPEUTICS, INC., priority 2022, published 2025):
Structures can show the parent of a compound that is named as a salt.

Experiments:
[1] = test system: MV-4-11 cells; assay: AML cell viability assay (RealTime-Glo); type: cell-based; details: Homo sapiens, MV4-11; IC50 class; MV-4-11 cells, RealTime-Glo after 44 hrs of treatment (TABLE 3); read-out: Cell viability classification
[2] = biological target: CK1α (Homo sapiens, UniProt P48729+Q96SW2); assay: CK1α degradation, flow cytometry in MV4-11 cells; type: cell-based; set-up: CK1α levels were determined in MV-4-11 cells using Jess (Protein Simple); host or cells: MV-4-11; details: % reduction of CK1α compared to DMSO, MV4-11 cells at 316 nM for 16 hours, read-out: CK1α degradation classification
Sequence of CK1α (P48729 whole entry): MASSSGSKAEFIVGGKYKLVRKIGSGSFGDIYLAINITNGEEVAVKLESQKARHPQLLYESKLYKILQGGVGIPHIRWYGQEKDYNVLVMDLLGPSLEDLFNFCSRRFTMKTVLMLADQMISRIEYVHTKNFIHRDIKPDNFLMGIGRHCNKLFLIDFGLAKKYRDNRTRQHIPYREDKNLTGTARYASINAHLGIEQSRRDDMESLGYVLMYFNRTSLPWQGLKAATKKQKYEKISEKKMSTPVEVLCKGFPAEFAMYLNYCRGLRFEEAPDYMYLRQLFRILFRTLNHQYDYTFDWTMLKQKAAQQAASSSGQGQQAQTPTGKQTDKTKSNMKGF
Sequence of CK1α (Q96SW2 whole entry): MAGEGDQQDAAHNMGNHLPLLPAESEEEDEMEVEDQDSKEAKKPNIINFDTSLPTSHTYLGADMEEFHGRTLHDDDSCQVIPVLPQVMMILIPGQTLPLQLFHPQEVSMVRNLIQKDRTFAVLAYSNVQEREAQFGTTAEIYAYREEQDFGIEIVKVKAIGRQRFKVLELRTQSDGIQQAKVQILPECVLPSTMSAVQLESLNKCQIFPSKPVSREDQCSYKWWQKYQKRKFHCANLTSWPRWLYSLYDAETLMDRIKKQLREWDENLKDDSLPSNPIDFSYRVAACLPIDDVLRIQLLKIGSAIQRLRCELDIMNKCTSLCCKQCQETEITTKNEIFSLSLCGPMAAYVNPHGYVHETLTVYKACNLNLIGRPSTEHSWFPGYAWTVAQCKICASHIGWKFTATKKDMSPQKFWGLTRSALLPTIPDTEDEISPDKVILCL
Sequence of CK1α (Q16531 whole entry partner): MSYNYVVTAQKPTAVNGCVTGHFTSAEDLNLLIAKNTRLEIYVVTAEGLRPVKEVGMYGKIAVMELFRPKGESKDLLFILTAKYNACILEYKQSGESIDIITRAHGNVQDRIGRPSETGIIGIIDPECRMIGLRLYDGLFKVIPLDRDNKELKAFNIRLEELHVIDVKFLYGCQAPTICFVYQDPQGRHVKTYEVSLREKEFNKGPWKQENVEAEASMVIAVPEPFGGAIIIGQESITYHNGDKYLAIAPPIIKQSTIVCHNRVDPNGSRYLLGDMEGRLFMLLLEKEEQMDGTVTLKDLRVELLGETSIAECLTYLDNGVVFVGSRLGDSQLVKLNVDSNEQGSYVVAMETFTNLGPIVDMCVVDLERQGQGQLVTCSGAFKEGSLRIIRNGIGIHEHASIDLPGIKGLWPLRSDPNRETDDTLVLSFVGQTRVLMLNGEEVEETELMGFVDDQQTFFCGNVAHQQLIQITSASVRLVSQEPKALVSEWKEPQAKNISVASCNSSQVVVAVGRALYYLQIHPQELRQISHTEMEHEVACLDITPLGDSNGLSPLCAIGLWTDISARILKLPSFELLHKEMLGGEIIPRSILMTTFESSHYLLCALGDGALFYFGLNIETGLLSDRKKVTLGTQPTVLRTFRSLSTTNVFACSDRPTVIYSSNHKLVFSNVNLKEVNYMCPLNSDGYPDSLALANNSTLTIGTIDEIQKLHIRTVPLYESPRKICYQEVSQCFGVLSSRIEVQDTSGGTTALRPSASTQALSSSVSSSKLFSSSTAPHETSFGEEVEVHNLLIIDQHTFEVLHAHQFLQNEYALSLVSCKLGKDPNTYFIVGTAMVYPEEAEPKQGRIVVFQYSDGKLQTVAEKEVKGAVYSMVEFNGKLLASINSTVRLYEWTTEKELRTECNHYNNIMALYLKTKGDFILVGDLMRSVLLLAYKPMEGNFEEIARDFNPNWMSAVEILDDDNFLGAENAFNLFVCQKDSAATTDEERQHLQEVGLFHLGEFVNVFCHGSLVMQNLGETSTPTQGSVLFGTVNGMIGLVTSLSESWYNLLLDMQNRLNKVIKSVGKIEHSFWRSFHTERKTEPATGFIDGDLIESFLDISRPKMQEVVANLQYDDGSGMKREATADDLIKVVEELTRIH
Protocol: MV-4-11 cells were obtained from ATCC and grown in IMDM supplemented with 10% FBS. The cells were maintained at 37° C. under 5% CO2.
Compounds of the present disclosure were added to cells (final DMSO concentration of 0.5%) and incubated for 16 hours. CK1α level was determined in MV4-11 cells using flow cytometry (Luminex, Guava EasyCyte Plus). Briefly, cells were prepared with sequential 10% formalin and 70% methanol fixation. […] GuavaSoft Incyte software was used to analyse the flow cytometry data. Protein levels relative to DMSO are calculated for CK1α.
The efficacy of CK1α degradation of other part of compounds of the present disclosure was determined by treating MV4-11 cells at […] (Final DMSO concentration of 0.5%) for 16 hours. Protein levels relative to DMSO are calculated for CK1α.
Protein levels relative to DMSO are calculated for CK1α.

`CC(C)(C)CCN(CCCCN)c1cccc2c1CN(C1CCC(=O)NC1=O)C2=O` (stereo not drawn) [Compound 223, 3-(4-((4-aminobutyl)(3,3-dimethylbutyl)amino)-1-oxoisoindolin-2-yl)piperidine-2,6-dione] was tested, and the IC50 [1] was < 100 nM and the Dmax at 0.316 µM [2] was > 75%.

In the case of `N[C@H]1CC[C@H](N(CC2CC2)c2cccc3c2CN(C2CCC(=O)NC2=O)C3=O)CC1` (stereo partly drawn) [Compound 235, 3-(4-(((1r,4r)-4-aminocyclohexyl)(cyclopropylmethyl)amino)-1-oxoisoindolin-2-yl)piperidine-2,6-dione hydrochloride], the IC50 [1] is reported as < 100 nM and the Dmax at 0.316 µM [2] is reported as > 75%.

In the case of `CC(C)CN(c1cccc2c1CN(C1CCC(=O)NC1=O)C2=O)[C@H]1CC[C@H](N)CC1` (stereo partly drawn) [Compound 236, 3-(4-(((1r,4r)-4-aminocyclohexyl)(isobutyl)amino)-1-oxoisoindolin-2-yl)piperidine-2,6-dione. HCl], the IC50 [1] is reported as 100 to 1000 nM and the Dmax at 0.316 µM [2] is reported as > 75%.

In the case of `N[C@H]1CC[C@H](N(CCC2CC2)c2cccc3c2CN(C2CCC(=O)NC2=O)C3=O)CC1` (stereo partly drawn) [Compound 237, 3-(4-(((1r,4r)-4-aminocyclohexyl)(2-cyclopropylethyl)amino)-1-oxoisoindolin-2-yl)piperidine-2,6-dione, HCl], the IC50 [1] is reported as < 100 nM and the Dmax at 0.316 µM [2] is reported as > 75%.

`CC(C)CCN(c1cccc2c1CN(C1CCC(=O)NC1=O)C2=O)[C@H]1CC[C@H](N)CC1` (stereo partly drawn) [Compound 238, 3-(4-(((1r,4r)-4-aminocyclohexyl)(isopentyl)amino)-1-oxoisoindolin-2-yl)piperidine-2,6-dione hydrochloride] was tested, and the IC50 [1] was < 100 nM and the Dmax at 0.316 µM [2] was > 75%.

For `N[C@H]1CC[C@H](N(CCC2CCNCC2)c2cccc3c2CN(C2CCC(=O)NC2=O)C3=O)CC1` (stereo partly drawn) [Compound 239, 3-(4-(((1r,4r)-4-aminocyclohexyl) (2-(piperidin-4-yl)ethyl)amino)-1-oxoisoindolin-2-yl) piperidine-2,6-dione, 2HCl], the IC50 [1] was > 1000 nM and the Dmax at 0.316 µM [2] was < 50%.

In the case of `N[C@H]1CC[C@H](N(CCC2CCOCC2)c2cccc3c2CN(C2CCC(=O)NC2=O)C3=O)CC1` (stereo partly drawn) [Compound 240, 3-(4-(((1r,4r)-4-aminocyclohexyl)(2-(tetrahydro-2H-pyran-4-yl)ethyl)amino)-1-oxoisoindolin-2-yl)piperidine-2,6-dione hydrochloride], the IC50 [1] is reported as 100 to 1000 nM and the Dmax at 0.316 µM [2] is reported as < 50%.

`N[C@H]1CC[C@H](N(CCCC2CCNCC2)c2cccc3c2CN(C2CCC(=O)NC2=O)C3=O)CC1` (stereo partly drawn) [Compound 241, 3-(4-(((1r,4r)-4-aminocyclohexyl)(3-(piperidin-4-yl)propyl)amino)-1-oxoisoindolin-2-yl)piperidine-2,6-dione, 2HCl] was tested, and the IC50 [1] was > 1000 nM and the Dmax at 0.316 µM [2] was < 50%.

`N[C@H]1CC[C@H](N(CCCC2CCOCC2)c2cccc3c2CN(C2CCC(=O)NC2=O)C3=O)CC1` (stereo partly drawn) [Compound 242, 3-(4-(((1r,4r)-4-aminocyclohexyl)(3-(tetrahydro-2H-pyran-4-yl)propyl)amino)-1-oxoisoindolin-2-yl)piperidine-2,6-dione hydrochloride] was tested, and the IC50 [1] was < 100 nM and the Dmax at 0.316 µM [2] was > 75%.

For `N[C@H]1CC[C@H](N(CCN2CCNCC2)c2cccc3c2CN(C2CCC(=O)NC2=O)C3=O)CC1` (stereo partly drawn) [Compound 243, 3-(4-(((1r,4r)-4-aminocyclohexyl)(2-(piperazin-1-yl)ethyl)amino)-1-oxoisoindolin-2-yl)piperidine-2,6-dione, 3HCl], the IC50 [1] was > 1000 nM and the Dmax at 0.316 µM [2] was < 50%.

`N[C@H]1CC[C@H](N(CCN2CCOCC2)c2cccc3c2CN(C2CCC(=O)NC2=O)C3=O)CC1` (stereo partly drawn) [Compound 244, 3-(4-(((1r,4r)-4-aminocyclohexyl)(2-morpholinoethyl)amino)-1-oxoisoindolin-2-yl)piperidine-2,6-dione, 2HCl] was tested, and the IC50 [1] was > 1000 nM and the Dmax at 0.316 µM [2] was < 50%.

`N[C@H]1CC[C@H](N(CCCN2CCNCC2)c2cccc3c2CN(C2CCC(=O)NC2=O)C3=O)CC1` (stereo partly drawn) [Compound 245, 3-(4-(((1r,4r)-4-aminocyclohexyl)(3-(piperazin-1-yl)propyl)amino)-1-oxoisoindolin-2-yl)piperidine-2,6-dione, 3HCl] was tested, and the IC50 [1] was > 1000 nM and the Dmax at 0.316 µM [2] was < 50%.

In the case of `N[C@H]1CC[C@H](N(CCCN2CCOCC2)c2cccc3c2CN(C2CCC(=O)NC2=O)C3=O)CC1` (stereo partly drawn) [Compound 246, 3-(4-(((1r,4r)-4-aminocyclohexyl)(3-morpholinopropyl)amino)-1-oxoisoindolin-2-yl)piperidine-2,6-dione dihydrochloride], the IC50 [1] is reported as > 1000 nM and the Dmax at 0.316 µM [2] is reported as < 50%.

With `CCCCCN(CCC1(CN)CCCCC1)c1cccc2c1CN(C1CCC(=O)NC1=O)C2=O` (stereo not drawn) [Compound 255, 3-(4-((2-(1-(aminomethyl)cyclohexyl)ethyl) (pentyl)amino)-1-oxoisoindolin-2-yl) piperidine-2,6-dione, Formic Acid] the IC50 [1] was 100 to 1000 nM and the Dmax at 0.316 µM [2] was 50 to 75%.

For `CC(C)(C)CCN(c1cccc2c1CN(C1CCC(=O)NC1=O)C2=O)[C@H]1CC[C@H](N)CC1` (stereo partly drawn) [Compound 267, 3-(4-(((1R,4R)-4-aminocyclohexyl)(3,3-dimethylbutyl)amino)-1-oxoisoindolin-2-yl)piperidine-2,6-dione hydrochloride], the IC50 [1] was < 100 nM and the Dmax at 0.316 µM [2] was > 75%.

With `CC(C)(C)CCCN(c1cccc2c1CN(C1CCC(=O)NC1=O)C2=O)[C@H]1CC[C@H](N)CC1` (stereo partly drawn) [Compound 268, 3-(4-(((1r,4r)-4-aminocyclohexyl)(4,4-dimethylpentyl)amino)-1-oxoisoindolin-2-yl)piperidine-2,6-dione, HCl] the IC50 [1] was < 100 nM and the Dmax at 0.316 µM [2] was > 75%.

In the case of `CC(=O)N[C@H]1CC[C@H](N(CCCCN)c2cccc3c2CN(C2CCC(=O)NC2=O)C3=O)CC1` (stereo partly drawn) [Compound 273, N-((1r,4r)-4-((4-aminobutyl)(2-(2,6-dioxopiperidin-3-yl)-1-oxoisoindolin-4-yl)amino)cyclohexyl)acetamide, 2HCl], the IC50 [1] is reported as > 1000 nM and the Dmax at 0.316 µM [2] is reported as 50 to 75%.

With `CCCCCN(c1cccc2c1CN(C1CCC(=O)NC1=O)C2=O)[C@H]1CC[C@H](C(N)=O)CC1` (stereo partly drawn) [Compound 305, (1R,4R)-4-((2-(2,6-dioxopiperidin-3-yl)-1-oxoisoindolin-4-yl)(pentyl)amino)cyclohexane-1-carboxamide] the IC50 [1] was < 100 nM and the Dmax at 0.316 µM [2] was > 75%.

With `CCCCCN(c1cccc2c1CN(C1CCC(=O)NC1=O)C2=O)[C@H]1CC[C@H](C(=O)NC)CC1` (stereo partly drawn) [Compound 306, (1R,4R)-4-((2-(2,6-dioxopiperidin-3-yl)-1-oxoisoindolin-4-yl)(pentyl)amino)-N-methylcyclohexane-1-carboxamide] the IC50 [1] was 100 to 1000 nM and the Dmax at 0.316 µM [2] was > 75%.

`CCCCCN(c1cccc2c1CN(C1CCC(=O)NC1=O)C2=O)[C@H]1CC[C@@H](C(N)=O)CC1` (stereo partly drawn) [Compound 307, (1S,4S)-4-((2-(2,6-dioxopiperidin-3-yl)-1-oxoisoindolin-4-yl)(pentyl)amino)cyclohexane-1-carboxamide] was tested, and the IC50 [1] was < 100 nM and the Dmax at 0.316 µM [2] was > 75%.

`CCCCCN(c1cccc2c1CN(C1CCC(=O)NC1=O)C2=O)[C@H]1CC[C@@H](C(=O)NC)CC1` (stereo partly drawn) [Compound 308, (1S,4S)-4-((2-(2,6-dioxopiperidin-3-yl)-1-oxoisoindolin-4-yl)(pentyl)amino)-N-methylcyclohexane-1-carboxamide] was tested, and the IC50 [1] was < 100 nM and the Dmax at 0.316 µM [2] was > 75%.

For `CCCCCN(c1cccc2c1CN(C1CCC(=O)NC1=O)C2=O)[C@H]1CC[C@H](NCC)CC1` (stereo partly drawn) [Compound 309, 3-(4-(((1r,4r)-4-(ethylamino)cyclohexyl)(pentyl)amino)-1-oxoisoindolin-2-yl)piperidine-2,6-dione, HCl], the IC50 [1] was < 100 nM and the Dmax at 0.316 µM [2] was > 75%.

`CCCCCN(c1cccc2c1CN(C1CCC(=O)NC1=O)C2=O)[C@H]1CC[C@H](NC(C)C)CC1` (stereo partly drawn) [Compound 310, 3-(4-(((1r,4r)-4-(isopropylamino)cyclohexyl)(pentyl)amino)-1-oxoisoindolin-2-yl)piperidine-2,6-dione, HCl] was tested, and the IC50 [1] was < 100 nM and the Dmax at 0.316 µM [2] was 50 to 75%.

For `CCCCCN(c1cccc2c1CN(C1CCC(=O)NC1=O)C2=O)[C@H]1CC[C@H](NCC(C)C)CC1` (stereo partly drawn) [Compound 311, 3-(4-(((1r,4r)-4-(isobutylamino)cyclohexyl)(pentyl)amino)-1-oxoisoindolin-2-yl)piperidine-2,6-dione, HCl], the IC50 [1] was < 100 nM and the Dmax at 0.316 µM [2] was > 75%.

For `CCCCCN(c1cccc2c1CN(C1CCC(=O)NC1=O)C2=O)[C@H]1CC[C@H](NCCC)CC1` (stereo partly drawn) [Compound 312, 3-(1-oxo-4-(pentyl((1r,4r)-4-(propylamino)cyclohexyl)amino)isoindolin-2-yl)piperidine-2,6-dione, HCl], the IC50 [1] was < 100 nM and the Dmax at 0.316 µM [2] was > 75%.

In the case of `CCCCCN(c1cccc2c1CN(C1CCC(=O)NC1=O)C2=O)[C@H]1CC[C@H](NCC2CC2)CC1` (stereo partly drawn) [Compound 313, 3-(4-(((1R,4R)-4-((cyclopropylmethyl)amino)cyclohexyl)(pentyl)amino)-1-oxoisoindolin-2-yl)piperidine-2,6-dione hydrochloride], the IC50 [1] is reported as < 100 nM and the Dmax at 0.316 µM [2] is reported as > 75%.

`CCCCCN(c1cccc2c1CN(C1CCC(=O)NC1=O)C2=O)[C@@H]1CC[C@@H](CN)C1` (stereo partly drawn) [Compound 325, 3-(4-(((1R,3R)-3-(aminomethyl)cyclopentyl)(pentyl)amino)-1-oxoisoindolin-2-yl)piperidine-2,6-dione HCl salt] was tested, and the IC50 [1] was < 100 nM and the Dmax at 0.316 µM [2] was > 75%.
